Laboratory results from PubChem BioAssay (NCI).
Values joined by “and” are separate entries in the source; they are usually repeats but may differ in a detail not shown here. Identical values can stand only once.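 Compound exposure: 48 hours, 5 concentrations, 96-well plates. GI50 is the concentration that inhibits growth by half. TGI: total growth inhibition.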

Legend:
Experiment in all cases: inhibition of tumour cell growth, NCI panel, 48 h
[1] = test system: T-47D breast
[2] = test system: LOX IMVI melanoma
[3] = test system: MDA-MB-435
[4] = test system: HOP-92 NSCLC
[5] = test system: SNB-19 CNS
[6] = test system: MDA-MB-231 breast

For Cc1cc(NC(=O)C2c3ccccc3C(=O)N(CC(C)C)C2c2cccs2)no1 (stereo not drawn), the GI50 [1] was over 100 µM, the TGI [1] was over 100 µM and the GI50 [2] was over 100 µM. It also gave a TGI [2] of over 100 µM, a GI50 [3] of 33.7 µM and a TGI [3] of over 100 µM. For the same molecule, the GI50 [4] was 18.7 µM, the TGI [4] was 78.2 µM and the GI50 [5] was 46.2 µM. For the same molecule, the TGI [5] was over 100 µM, the GI50 [6] was 21.2 µM and the TGI [6] was 93.4 µM.

In the case of Cn1cc(-c2ccc(=O)n(Cc3cccc(-c4ncc(OCCN5CCOCC5)cn4)c3)n2)cn1, the GI50 [1] was 20.9 µM, the TGI [1] was over 81.5 µM and the GI50 [2] was over 100 µM. For the same molecule, the TGI [2] was over 100 µM, the GI50 [3] was 61.8 µM and the TGI [3] was over 100 µM. For the same molecule, the GI50 [4] was 34.9 µM, the TGI [4] was over 100 µM and the GI50 [5] was over 87.4 µM. For the same molecule, the TGI [5] was over 100 µM, the GI50 [6] was over 78 µM and the TGI [6] was over 100 µM.

O=C1c2ccccc2-c2c1c1ccccc1c(=O)n2CCO was tested, and the TGI [1] was over 100 µM, the TGI [2] was over 100 µM and the TGI [3] was over 100 µM. The TGI [4] was over 71.6 µM, the TGI [5] was over 100 µM and the TGI [6] was over 100 µM.

In the case of Cc1ccc(-c2c(C#N)c(N)nc(N3CCOCC3)c2C#N)o1, the GI50 [4] was 23.6 µM, the TGI [4] was over 100 µM and the GI50 [6] was 21 µM. It also gave a TGI [6] of 80.7 µM.

Nc1cccc2c1C(=O)N(C1CCC(=O)NC1=O)C2=O (stereo not drawn) was tested, and the GI50 [1] was over 100 µM, the TGI [1] was over 100 µM and the GI50 [2] was over 100 µM. For the same molecule, the TGI [2] was over 100 µM, the GI50 [3] was over 100 µM and the TGI [3] was over 100 µM. The GI50 [4] was over 100 µM, the TGI [4] was over 100 µM and the GI50 [5] was over 100 µM. The TGI [5] was over 100 µM, the GI50 [6] was over 100 µM and the TGI [6] was over 100 µM.

CC1(C)CC(=O)C2=C(C1)NC(SSC1=C(C#N)C(c3ccccc3)C3=C(CC(C)(C)CC3=O)N1)=C(C#N)C2c1ccccc1 (stereo not drawn) gave a GI50 [1] of 30.7 µg/mL, a TGI [1] of 62.4 µg/mL and a GI50 [2] of 27.2 µg/mL. The TGI [2] was 49.3 µg/mL, the GI50 [3] was 25.7 µg/mL and the TGI [3] was 49.9 µg/mL. For the same molecule, the GI50 [4] was 29 µg/mL, the TGI [4] was 51 µg/mL and the GI50 [5] was 89.2 µg/mL. It also gave a TGI [5] of over 150 µg/mL, a GI50 [6] of 23.4 µg/mL and a TGI [6] of 45.1 µg/mL.

COc1cccc(NC(=O)c2sc3nc4c(cc3c2N)CCCC4)c1 showed a GI50 [1] of 0.529 µM, a TGI [1] of over 100 µM and a GI50 [2] of 0.729 µM. For the same molecule, the TGI [2] was over 100 µM, the GI50 [3] was 0.15 µM and the TGI [3] was 0.44 µM. The GI50 [4] was 0.598 µM, the TGI [4] was 24.7 µM and the GI50 [5] was 0.813 µM. It also gave a TGI [5] of 53.5 µM, a GI50 [6] of 3.88 µM and a TGI [6] of 26.4 µM.

In the case of O=C1C=C[C@]2(C[C@@H](c3cccc(C(F)(F)F)c3)O[C@@H](c3cccc(C(F)(F)F)c3)O2)O1, the GI50 [1] was 1.1 µM, the TGI [1] was 3.96 µM and the GI50 [2] was 0.433 µM. The TGI [2] was 1.71 µM, the GI50 [3] was 1.6 µM and the TGI [3] was 3.39 µM. For the same molecule, the GI50 [4] was 1.97 µM, the TGI [4] was 6.6 µM and the GI50 [5] was 3.13 µM. It also gave a TGI [5] of 16.1 µM, a GI50 [6] of 2.15 µM and a TGI [6] of 6.29 µM.

For ClC(=Nc1cccc2ccccc12)N(c1ccccc1)c1ccccc1, the TGI [1] was over 100 µM, the TGI [2] was over 100 µM and the TGI [3] was over 100 µM. The TGI [5] was over 100 µM and the TGI [6] was over 100 µM.

Work on COC(=O)[C@]12CC[C@@H](C)[C@H](C)[C@@H]1C1=CC[C@@H]3[C@@]4(C)CC(=O)[C@H](O)[C@@]5(C)COC(=C45)C[C@@]3(C)[C@]1(C)CC2 yielded a GI50 [1] of 18.4 µM, a TGI [1] of 38.8 µM and a GI50 [2] of 17 µM. For the same molecule, the TGI [2] was 31.1 µM, the GI50 [3] was 17 µM and the TGI [3] was 32.5 µM. The GI50 [4] was 14.3 µM, the TGI [4] was 29.1 µM and the GI50 [5] was 19 µM. The TGI [5] was 42.1 µM, the GI50 [6] was 20.1 µM and the TGI [6] was 42.4 µM.

Nc1nc(N)[n+]([O-])c(N)c1NCO gave a TGI [1] of over 100 µM, a TGI [2] of over 100 µM and a TGI [3] of over 100 µM. It also gave a TGI [4] of over 100 µM, a TGI [5] of over 100 µM and a TGI [6] of over 100 µM.

In the case of CC1(C)N=C(N)N=C(N)N1c1cccc(/C=C/C=C/c2cccc([N+](=O)[O-])c2)c1, the GI50 [2] was 5.02 µM, the TGI [2] was 19.2 µM and the GI50 [3] was 2.68 µM. The TGI [3] was 15.2 µM, the GI50 [5] was 6.04 µM and the TGI [5] was 22.5 µM. For the same molecule, the GI50 [6] was 10.3 µM and the TGI [6] was 24.4 µM.

In the case of O=C(c1cccs1)c1c(C(F)(F)F)n([O-])c2ccc(C(F)(F)F)cc2[n+]1=O, the GI50 [1] was 0.51 µM, the TGI [1] was 1.43 µM and the GI50 [2] was 0.0571 µM. For the same molecule, the TGI [2] was 0.127 µM, the GI50 [3] was 0.564 µM and the TGI [3] was 1.19 µM. The GI50 [4] was 0.152 µM, the TGI [4] was 0.321 µM and the GI50 [5] was 1.11 µM. It also gave a TGI [5] of 2.53 µM, a GI50 [6] of 0.189 µM and a TGI [6] of 0.357 µM.

Molecule Nc1ccn(C=C=CCO)c(=O)n1 has a GI50 [1] of over 1000 µM, a TGI [1] of over 1000 µM and a GI50 [2] of over 1000 µM. It also gave a TGI [2] of over 1000 µM, a GI50 [3] of over 1000 µM and a TGI [3] of over 1000 µM. It also gave a GI50 [4] of over 1000 µM, a TGI [4] of over 1000 µM and a GI50 [5] of over 1000 µM. The TGI [5] was over 1000 µM, the GI50 [6] was over 1000 µM and the TGI [6] was over 1000 µM.

Molecule COc1ccc(/C(=C/c2cc(OC)c(OC)c(OC)c2)[N+](=O)[O-])cc1 has a GI50 [1] of 1.65 µM, a TGI [1] of 10.3 µM and a GI50 [2] of 1.62 µM. For the same molecule, the TGI [2] was 3.07 µM, the GI50 [3] was 1.81 µM and the TGI [3] was 3.99 µM. The GI50 [4] was 1.44 µM, the TGI [4] was 3.09 µM and the GI50 [5] was 1.68 µM. The TGI [5] was 3.64 µM, the GI50 [6] was 1.47 µM and the TGI [6] was 3.28 µM.

CCOC(=O)c1cnc(SCc2ccc(Cl)c(Cl)c2)nc1N1CC1 showed a GI50 [1] of 3.15 µM, a TGI [1] of 19.5 µM and a GI50 [2] of 1 µM. It also gave a TGI [2] of 5.73 µM, a GI50 [3] of 1.97 µM and a TGI [3] of 11.4 µM. For the same molecule, the GI50 [5] was 6.93 µM, the TGI [5] was 23.8 µM and the GI50 [6] was 6.12 µM. For the same molecule, the TGI [6] was 27.2 µM.

CCCCCCCCCCCCc1ccc(C(=O)/C=C/C(=O)O)cc1 showed a GI50 [1] of 1.67 µM, a TGI [1] of 4.11 µM and a GI50 [2] of 1.45 µM. It also gave a TGI [2] of 2.81 µM, a GI50 [3] of 3.05 µM and a TGI [3] of 11.2 µM. For the same molecule, the GI50 [4] was 1.95 µM, the TGI [4] was 5.78 µM and the GI50 [5] was 7.07 µM. The TGI [5] was 22 µM, the GI50 [6] was 1.85 µM and the TGI [6] was 4.5 µM.

Molecule CCCCOC(=O)C(=O)C(CC(C(=O)Cc1ccccc1)c1ccccc1)C(=O)C=C(C)C (stereo not drawn) has a TGI [2] of over 100 µM, a TGI [3] of over 100 µM and a TGI [4] of over 100 µM. The TGI [5] was over 100 µM and the TGI [6] was over 100 µM.

With COc1cc(CCc2cc(NC(=O)c3ccc(N4C[C@@H](C)N[C@@H](C)C4)cc3)n[nH]2)cc(OC)c1 the GI50 [1] was > 10 µM and 15.3 µM, the TGI [1] was > 10 µM and 31.6 µM and the GI50 [2] was 2.93 µM and 2.66 µM. For the same molecule, the TGI [2] was > 10 µM and 10.3 µM, the GI50 [3] was 6.15 µM and 3.48 µM and the TGI [3] was > 10 µM and 14.2 µM. The GI50 [4] was 1.95 µM and 1.96 µM, the TGI [4] was > 10 µM and 12.8 µM and the GI50 [5] was > 10 µM and 14.9 µM. For the same molecule, the TGI [5] was > 10 µM and 30.8 µM, the GI50 [6] was > 10 µM and 5.81 µM and the TGI [6] was > 10 µM and 19.7 µM.

CC(=O)c1ccc(Nc2cc(-n3ccnc3)nc3ccccc23)cc1 showed a GI50 [1] of over 100 µM, a TGI [1] of over 100 µM and a GI50 [3] of 13.5 µM. The TGI [3] was 60.1 µM, the GI50 [4] was 4.15 µM and the TGI [4] was 29.4 µM. It also gave a GI50 [5] of over 100 µM, a TGI [5] of over 100 µM and a GI50 [6] of 3.64 µM. For the same molecule, the TGI [6] was 18.1 µM.
